The record followed here is patent US20210121432A1, “Bambuterol for the Treatment of Alzheimer's Disease” (priority 2018, published 2021).

For experiment [1], the system named is rat primary hippocampal neurons injured with Aβ. In words: Plate A: survival and neurite network of MAP-2 hippocampal neurons injured with Aβ1-42. The settings on record: for Neurite length per neuron (total neurite network normalized by the number of neurons): FIG. 2C. Format: cell-based. How it is done:
(§1) Bambuterol, referred to as MR36621 in the experiments was tested on rat primary hippocampal neurons that were injured with Aβ. Donezpil was used as a reference test compound.
(§2) Rat hippocampal neurons were cultured as described by Callizot et al., Operational dissection of β-amyloid cytopathic effects of cultured neurons, J. Neurosci. Res. 2013 May; 91(5): 706-16. Pregnant female rats of 17 days gestation (Rats Wistar; Janvier Labs France) were euthanized using a deep anesthesia with a CO2 chamber followed by a cervical dislocation. Fetuses were removed from the uterus and immediately placed in ice-cold L15 Leibovitz medium with a 2% penicillin (10,000 U/ml) and streptomycin (10 mg/ml) solution (PS) and 1% bovine serum albumin (BSA).
(§3) Hippocampal neurons were treated for 20 min at 37° C. with a trypsin-EDTA solution at a final concentration of 0.05% trypsin and 0.02% EDTA. The dissociation was stopped by adding Dulbecco's modified Eagle's medium (DMEM) with 4.5 g/liter of glucose, containing DNAse I grade II (final concentration 0.5 mg/ml) and 10% fetal calf serum (FCS). Cells were mechanically dissociated by three forced passages through the tip of a 10-ml pipette and then centrifuged at 515×g for 10 min at 4° C.
The supernatant was discarded, and the pellet was resuspended in a defined culture medium consisting of Neurobasal medium with a 2% solution of B27 supplement, 2 mmol/liter of L-glutamine, 2% of PS solution, and 10 ng/ml of brain-derived neurotrophic factor (BDNF). Viable cells were counted in a Neubauer cytometer, using the trypan blue exclusion test. Cells were seeded at a density of 20,000 per well in 96-well plates precoated with poly-L-lysine and cultured at 37° C. in an air (95%)-CO2 (5%) incubator. The medium was changed every 2 days.
The hippocampal neurons were exposed with A solutions after 17 days of culture. An Aβ1-42 preparation was done following the procedure described by Callizot et al., 2013. Aβ1-42 is a forty-two amino acid form of amyloid β in cerebrospinal fluid and is recognized by persons of ordinary skill in the art as a biomarker for Alzheimer's disease.
Aβ1-42 peptide was dissolved in the defined culture medium mentioned above, at an initial concentration of 40 μM. This solution was gently agitated for 3 days at 37° C. in the dark and immediately used after being properly diluted in culture medium to the concentrations used (20 μM (plate 13) or 2.5 μM (plate 14) corresponding to 2 μM or 0.25 μM of oligomers (AβO) respectively).
Bambuterol was placed in a culture medium and preincubated for 1 hour before Aβ application. An Aβ1-42 preparation was added to a final concentration of 20 or 2.5 μM (=2 μM or 0.25 μM of AβO, evaluated by automatic WB) diluted in control medium in presence of the compound.
Table I identifies two plates that exposed two concentrations of Aβ to different concentrations of bambuterol. The bambuterol was preincubated 1 hour before the application of Aβ.
Twenty-four hours after intoxication, the hippocampal neurons were fixed by a cold solution of ethanol (95%) and acetic acid (5%) for 5 min at −20° C. After permeabilization with 0.1% of saponin, cells were incubated for 2 hours with: • (a) chicken polyclonal antibody anti microtubule-associated-protein 2 (MAP-2), diluted at 1/1000 in PBS containing 1% fetal calf serum and 0.1% of saponin (this antibody allows the specific staining of neuronal cell bodies and neurites; and allow the study of neuronal cell death and neurite network); and • (b) mouse monoclonal antibody anti-phospho Tau (AT100) at dilution of 1/400 in PBS containing 1% fetal calf serum and 0.1% of saponin.
For each condition, multiple pictures (representative of the whole well area) per well were taken using ImageXpress (Molecular Devices) at 20× magnification. All images were taken with the same acquisition parameters. Analyses were performed automatically by using Custom Module Editor® (Molecular Devices). […]

For experiment [2] the test system is unchanged. In words: Plate B: synapses evaluation (PSD95/SYN) in hippocampal neurons injured with Aβ1-42. The settings on record: Aβ 2.5 μM 24 h, FIG. 3. Format: cell-based. Here is the method: as §1
Rat hippocampal neurons were cultured as described by Callizot et al., Operational dissection of β-amyloid cytopathic effects of cultured neurons, J. Neurosci. Res. 2013 May; 91(5): 706-16. Pregnant female rats of 17 days gestation (Rats Wistar; Janvier Labs France) were euthanized using a deep anesthesia with a CO2 chamber followed by a cervical dislocation. […]
The supernatant was discarded, and the pellet was resuspended in a defined culture medium consisting of Neurobasal medium with a 2% solution of B27 supplement, 2 mmol/liter of L-glutamine, 2% of PS solution, and 10 ng/ml of brain-derived neurotrophic factor (BDNF). Viable cells were counted in a Neubauer cytometer, using the trypan blue exclusion test. […]
(§4) Bambuterol was placed in a culture medium and preincubated for 1 hour before Aβ application. An Aβ1-42 preparation was added to a final concentration of 20 or 2.5 μM (=2 μM or 0.25 μM of AβO, evaluated by automatic WB) diluted in control medium in presence of the compound. […]
The following endpoints were assessed: • Total number of synapses (overlapping between PSD95/SYN).

In experiment [3] the test system is hyperphosphorylated Tau (AT100) in MAP-2 positive neurons. The experiment is described as follows: Plate A: phospho Tau (AT100) evaluation in MAP-2 hippocampal neurons injured with Aβ1-42. The settings on record: Aβ 20 μM 24 h, FIG. 2D. Format: cell-based, rat. How it is done: as §1, §2, §3
The supernatant was discarded, and the pellet was resuspended in a defined culture medium consisting of Neurobasal medium with a 2% solution of B27 supplement, 2 mmol/liter of L-glutamine, 2% of PS solution, and 10 ng/ml of brain-derived neurotrophic factor (BDNF). Viable cells were counted in a Neubauer cytometer, using the trypan blue exclusion test. Cells were seeded at a density of 20,000 per well in 96-well plates precoated with poly-L-lysine and cultured at 37° C. in an air (95%)-CO2 (5%) incubator. The medium was changed every 2 days. […]
as §4

For `COc1cc2c(cc1OC)C(=O)C(CC1CCN(Cc3ccccc3)CC1)C2` (stereo not drawn) [Donepezil], the “Neuronal survival (number of MAP-2 positive neurons)” value in experiment [1] (Aβ 20 μM 24 h, Donepezil 1 μM, FIG. 2A) is on record as “significantly protect neurons from death”. In addition, the “Total neurite network (MAP-2 positive neurons)” value in experiment [1] (Aβ 20 μM 24 h, Donepezil 1 μM, FIG. 2B) is “significantly preserved almost the whole neurite network”. Besides, the “Neurite length per neuron (total neurite network normalized by the number of neurons)” value in experiment [1] (Aβ 20 μM 24 h, Donepezil 1 μM) is recorded as “longer”. Also, in experiment [2] (Donepezil 1 μM), the “Number of synapses (overlapping PSD95/SYN)” value is given as “mitigated the loss of synapses”. In addition, the “Hyperphosphorylation of Tau (AT100)” value in experiment [3] (Donepezil 1 μM) is reported as “significantly mitigate this hyperphosphorylation”.
Turning to `CN(C)C(=O)Oc1cc(OC(=O)N(C)C)cc(C(O)CNC(C)(C)C)c1` (stereo not drawn) [bambuterol], the “Total neurite network (MAP-2 positive neurons)” value in experiment [1] (Aβ 20 μM 24 h, all investigated doses of bambuterol (1 nM to 1 μM), FIG. 2B) is given as “exerted protective effects on the neurite network”. Besides, in experiment [1] (Aβ 20 μM 24 h, bambuterol 1 nM to 1 μM), the “Neurite length per neuron (total neurite network normalized by the number of neurons)” value is recorded as “did not change this parameter”. Further, the “Neuronal survival (number of MAP-2 positive neurons)” value in experiment [1] (Aβ 20 μM 24 h, bambuterol highest doses 500 nM and 1 μM, FIG. 2A) was “did not show any protective effect”; in experiment [1] (Aβ 20 μM 24 h, bambuterol low doses 1 nM to 100 nM, preincubated 1 h, FIG. 2A), “significant neuroprotective effects to a similar or higher extent to donepezil”. The “Dose of maximal effect on neurite network” value in experiment [1] (Aβ 20 μM 24 h, bell-shape curve, FIG. 2B) is listed as 10 nM. The “Dose of maximal effect on neuronal survival” value in experiment [1] (Aβ 20 μM 24 h, bell-shaped curve, FIG. 2A) worked out at 10 nM. Further, the “Effects of bambuterol compared with Donepezil (summary of the examples)” value in experiment [1] (bambuterol at a dose of 10 nM, hippocampal neurons injured with Aβ 1-42, overall statement over all readouts) was “comparable, and even greater, to those of Donepezil”. The “Number of synapses (overlapping PSD95/SYN)” value in experiment [2] (bambuterol from 10 nM to 100 nM) is listed as “able to preserve the number of synapses”. The “Hyperphosphorylation of Tau (AT100)” value in experiment [3] (bambuterol all investigated doses (1 nM to 1 μM)) is listed as “significantly reduced the hyperphosphorylation of Tau”. Also, the “Dose of maximal effect on hyperphosphorylation of Tau” value in experiment [3] (bell-shape curve) came to 10 nM.
